Assay results taken from ChEMBL document CHEMBL1201862, “PubChem BioAssay data set” (2004).
Calls of active or inactive are those of the source. Rule as the data show it, for most assays here: actives have a measured EC50 and inactives only a lower limit. Where a SMILES comes first, the peptide text is derived from it. The star is where a group is joined. CH2Cl = ClC*

Assays:
Interleukin-8 [1] = molecular target: T1, Interleukin-8 (Homo sapiens, UniProt P10145); assay: Dose Response confirmation of uHTS small molecule hits for cystic fibrosis induced NFkb Inhibitors in a TNFa-induced IL8 counterscreen.; type: functional; settings: read-out: IC50_Mean
T1 sequence (P10145 whole entry): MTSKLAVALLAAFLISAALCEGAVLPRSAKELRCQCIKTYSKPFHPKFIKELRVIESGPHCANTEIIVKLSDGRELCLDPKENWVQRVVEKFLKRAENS

Interleukin-8 [2] = molecular target: T1, Interleukin-8; assay: Dose Response confirmation of uHTS small molecule hits for cystic fibrosis induced NFkb Inhibitors in a PAF-induced IL8 counterscreen.; type: functional; settings: read-out: IC50_Mean
BJ [3] = assay: BJ-TERT fibroblast viability loss – cell-based, RAS-independent, luminescence, dose response (AID 1933); type: functional; settings: Homo sapiens
[4] = NIH-3T3 fibroblast cytotoxicity, dose response, cytotoxicity control, cell-based, fluorescence, Alamar Blue, secondary assay (AID 2327); type: functional;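 also: NIH-3T3 mouse fibroblasts cultured with fluconazole at 8 µg/mL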
BJ [5] = assay: cells; type: functional, cell-based; settings: Homo sapiens
[6] = fluconazole-exposed Candida albicans growth modulators – fluorescence, retest, confirmation (AID 2467); type: functional, cell-based
cells [7] = type: functional, cell-based
[8] = DRD fibroblast viability loss – cell-based, non-viral oncogenic, luminescence, dose response (AID 1934); type: functional; settings: Homo sapiens
INS1 = assay: INS-1E survival protection against cytokine death – cell-based, luminescence, retest, dose response (AID 449756); type: functional; settings: Rattus norvegicus;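 also: cell death triggered by IL-1 beta plus TNF-alpha plus IFN-gamma mixture; protective hits raise ATP signal compared with cytokine alone wells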
BJ [9] = assay: BJ-TERT-LT-ST fibroblast viability loss – cell-based, RAS-independent, luminescence, dose response (AID 1935); type: functional; settings: Homo sapiens;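 also: BJ fibroblasts immortalized with TERT plus LT and ST oncogenes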
BJ [10] = assay: growth inhibition of engineered Ras-driven BJ cells – cell-based, alamar blue fluorescence, cherrypicked samples, dose response (AID 2631); type: functional; settings: Homo sapiens;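 also: confirmatory dose-response assay in RAS-dependent BJ fibroblasts engineered with TERT, LT and ST, with cytotoxicity read by fluorescence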
cells [11] = type: functional, cell-based; remark: listed apart in the source
Genome polyprotein = Genome polyprotein (dengue virus type 2, UniProt P29990); assay: flavivirus cap methylation enzyme inhibition – biochemical, confirmation dose response, primary screen (AID 588689); type: functional
Vero = assay: viability of Vero cells under compound – cytotoxicity control for flavivirus capping enzyme inhibitors (AID 588742); type: functional; settings: Chlorocebus sabaeus
[12] = NIH3T3 cell viability loss – ATP luminescence, mouse fibroblasts, counter-screen, dose response (AID 2010); type: functional, cell-based;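 also: cells exposed to compound for about 90 hours before reading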
[13] = Trypanosoma cruzi growth suppression in host cells – NIH3T3 host cells, beta-gal luminescence, confirmation (AID 2044); type: functional, cell-based;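 also: intracellular parasites grown in NIH/3T3 mouse fibroblasts as host cells; luminescent beta-galactosidase reporter signal from transgenic T. cruzi replicating inside host cells; inhibitors lower the luminescence signal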
Protein Wnt-3a = Protein Wnt-3a (Mus musculus, UniProt P27467); assay: antagonism of Wnt3a pathway luciferase reporter – Wnt-LIGHT cells, luminescence, selectivity assay for Gli-SUFU antagonist project, dose response (AID 651570); type: functional; settings: read-out: IC50_Mean;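 also: Wnt-LIGHT reporter cells stimulated with conditioned medium from Wnt3a-producing cells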
[14] = molecular target: T2, Latent membrane protein 1 (Human herpesvirus 4 (strain B95-8), UniProt P03230); assay: LMP1 TES1 pathway selectivity over dsRED control – imaging, HEK293T, dual-color eGFP/dsRED, cherry-picks, selectivity assay for LMP1 NF-kB inhibitor project, dose response (AID 588398); type: functional, cell-based
T2 sequence (P03230 whole entry): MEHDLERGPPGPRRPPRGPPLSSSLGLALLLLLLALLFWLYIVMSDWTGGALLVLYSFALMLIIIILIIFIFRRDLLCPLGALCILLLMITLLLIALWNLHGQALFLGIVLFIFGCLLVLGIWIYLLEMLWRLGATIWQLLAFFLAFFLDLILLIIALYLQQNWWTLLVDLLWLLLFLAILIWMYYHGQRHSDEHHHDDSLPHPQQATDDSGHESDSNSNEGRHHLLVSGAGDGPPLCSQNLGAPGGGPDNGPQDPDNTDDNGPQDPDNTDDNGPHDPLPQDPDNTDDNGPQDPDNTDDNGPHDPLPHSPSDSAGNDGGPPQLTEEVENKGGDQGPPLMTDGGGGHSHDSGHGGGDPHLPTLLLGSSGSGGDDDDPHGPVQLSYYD

HEK293 = assay: EBV LMP1 TES2 canonical NF-kB signalling blockers – cell-based, HEK293, luciferase, cherry-pick, dose response (AID 588343); type: functional; settings: Homo sapiens

Sequence of Genome polyprotein (P29990 2492-3391 limits assumed): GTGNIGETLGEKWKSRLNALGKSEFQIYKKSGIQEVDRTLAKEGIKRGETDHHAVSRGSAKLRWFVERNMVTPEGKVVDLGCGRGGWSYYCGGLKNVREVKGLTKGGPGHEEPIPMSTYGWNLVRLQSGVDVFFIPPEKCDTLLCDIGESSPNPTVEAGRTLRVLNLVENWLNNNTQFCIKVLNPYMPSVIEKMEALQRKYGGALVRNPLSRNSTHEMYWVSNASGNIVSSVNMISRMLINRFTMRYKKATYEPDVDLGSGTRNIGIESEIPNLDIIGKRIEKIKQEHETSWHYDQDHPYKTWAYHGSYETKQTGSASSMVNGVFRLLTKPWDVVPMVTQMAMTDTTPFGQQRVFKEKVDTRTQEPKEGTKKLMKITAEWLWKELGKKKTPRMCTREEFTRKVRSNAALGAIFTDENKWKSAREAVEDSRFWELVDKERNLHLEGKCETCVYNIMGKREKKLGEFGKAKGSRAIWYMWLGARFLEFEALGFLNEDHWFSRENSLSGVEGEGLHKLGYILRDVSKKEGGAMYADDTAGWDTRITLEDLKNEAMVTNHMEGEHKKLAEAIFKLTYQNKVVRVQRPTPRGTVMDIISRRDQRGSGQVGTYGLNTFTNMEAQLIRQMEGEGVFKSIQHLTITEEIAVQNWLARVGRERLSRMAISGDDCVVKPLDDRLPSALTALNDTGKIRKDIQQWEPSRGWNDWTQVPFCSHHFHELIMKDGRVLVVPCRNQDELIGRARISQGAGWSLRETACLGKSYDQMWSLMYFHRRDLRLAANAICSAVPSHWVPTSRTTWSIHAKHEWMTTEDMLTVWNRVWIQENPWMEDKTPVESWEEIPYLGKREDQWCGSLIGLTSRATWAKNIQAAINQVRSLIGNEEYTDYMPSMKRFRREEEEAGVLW
Sequence of Protein Wnt-3a (P27467 whole entry): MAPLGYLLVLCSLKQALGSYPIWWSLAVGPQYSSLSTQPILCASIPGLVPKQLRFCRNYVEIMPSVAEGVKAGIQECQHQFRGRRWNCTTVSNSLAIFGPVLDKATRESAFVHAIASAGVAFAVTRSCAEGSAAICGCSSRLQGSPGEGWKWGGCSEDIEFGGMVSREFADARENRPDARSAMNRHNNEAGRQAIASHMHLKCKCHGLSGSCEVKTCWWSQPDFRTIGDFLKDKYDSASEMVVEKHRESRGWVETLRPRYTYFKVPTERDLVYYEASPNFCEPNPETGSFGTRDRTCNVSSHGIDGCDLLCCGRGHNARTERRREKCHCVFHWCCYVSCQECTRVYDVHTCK

Row | Compound | EC50 (BJ [3]) | EC50 (BJ [5]) | EC50 (cells [7]) | EC50 [8] | AC50 (INS1) | EC50 (BJ [9]) | other results
1 | CC(=O)NC(CC(C)C)C(=O)NC(Cc1ccccc1)C(=O)CCl (stereo not drawn) (Ac-Leu-Phe-CH2Cl; configuration not given here) |  |  |  |  |  |  | IC50 (Interleukin-8 [1]): 3.63 µM (active); IC50 (Interleukin-8 [2]): 1.04 µM (active)
2 | Oc1cnnc(N/N=C/c2ccccn2)n1 | 7.32 µM (active) | 4.19 µM (active) | 7.62 µM (active) | 6.35 µM (active) | 1.37 µM (active) | 6.06 µM (active) | EC50 [4]: 2.5 µM (inconclusive); EC50 [6]: 1.26 µM (active); EC50 (BJ [10]): 0.798 µM (active); EC50 (cells [11]): > 350 µM (not active)
3 | O=C(c1ccccc1)c1ccc(O)c(O)c1O |  |  |  |  |  |  | IC50 (Genome polyprotein): 57.7 µM (active); CC50 (Vero): > 40 µM (active)
4 | Cc1ccc2c(c1)S/C(=C/c1ccc[n+](C)c1)N2CCO |  |  |  |  | 3.77 µM (active) |  | EC50 [12]: > 60 µM (not active); EC50 [13]: 1.16 µM (active); IC50 (Protein Wnt-3a): 26.7 µM (inactive)
5 | COc1ccc2[nH]c(C(=O)N/N=C/c3ccc(O)cc3O)cc2c1 | 12.2 µM (active) | 10.8 µM (active) | 9.59 µM (active) | 9.2 µM (inconclusive) | 0.694 µM (active) | 10.1 µM (inconclusive) | AC50 [14]: 20.3 µM (active); AC50 (HEK293): 7.59 µM (active)
